We go through four molecules from publication PMC5587766, “Towards designer organelles by subverting the peroxisomal import pathway” (Nature Communications, 2017).

The star is where a group is joined. Dansyl = CN(C)c1cccc2c(S(=O)(=O)*)cccc12

For data set [1] the following is noted: lissamine-labelled peptide, not pursued in FA assay.
Another data set addresses AtPEX5 TPR domain. The note with it: cited from earlier work. An excerpt: The pentapeptide library sequences were based on YQSKL, which has a nM affinity for the AtPEX5 TPR domain[17] and is widely used as a model PTS1 peptide. This sequence was randomized at the two C-terminal positions to create a library of sequences, YQSXX, where X represents any amino acid, which was efficiently prepared using split-and-pool solid-phase peptide synthesis. A dansyl fluorophore introduced at the N-terminus of the peptide added hydrophobicity to improve retention in LC-MS analysis. Deconvolution of Leu- and Ile-containing peptides was enabled by preparation of four sub-librari ...

The subject of data set [2] is naturally occurring PEX5 receptor. Briefly: PEX5 (naturally occurring receptor) binding of orthogonal peptide (overall statement). The text has this: PEX5 is a modular protein: the C-terminal domain recognizes PTS1 within a funnel-shaped pocket created by 7 α-helical tetratricopeptide repeats (TPRs)[14], while the N-terminal domain of PEX5, which is natively unstructured, is responsible for the docking, cargo delivery, and recycling functions of the receptor[10]. […] The PEX5*-PTS1* pair was discovered by assessing the binding of a range of variants of the C-terminal domain of Arabidopsis thaliana PEX5 (AtPEX5C) with a library of pentapeptides (Fig. 1a). […] PTS1* has low affinity for the naturally occurring PEX5 receptor. Following optimization, the C-terminal PEX5* sequence was combined with the N-terminal domain of PEX5 from the moss Physcomitrella patens (Phypa PEX5N) to create a fully functional PEX5* receptor (Fig. 1a). Concomitant expression of PEX5* with a cargo protein bearing PTS1* results in targeting of the cargo to the peroxisome at the expense of naturally occurring peroxisomal components—a process that was easily visualized in moss cells using fluorescent reporter proteins (Fig. 1b).

Another data set concerns the target T1, AtPEX5C D505H (Arabidopsis thaliana, UniProt Q9FMA3 340-728, D505H).
T1 construct: Made by site-directed mutagenesis of His6-AtPEX5 (340-728) in pET-28b; also called D505H variant of AtPEX5C; source: E. coli BL21-Gold (DE3), purified (Co-NTA)
T1 sequence (looked up): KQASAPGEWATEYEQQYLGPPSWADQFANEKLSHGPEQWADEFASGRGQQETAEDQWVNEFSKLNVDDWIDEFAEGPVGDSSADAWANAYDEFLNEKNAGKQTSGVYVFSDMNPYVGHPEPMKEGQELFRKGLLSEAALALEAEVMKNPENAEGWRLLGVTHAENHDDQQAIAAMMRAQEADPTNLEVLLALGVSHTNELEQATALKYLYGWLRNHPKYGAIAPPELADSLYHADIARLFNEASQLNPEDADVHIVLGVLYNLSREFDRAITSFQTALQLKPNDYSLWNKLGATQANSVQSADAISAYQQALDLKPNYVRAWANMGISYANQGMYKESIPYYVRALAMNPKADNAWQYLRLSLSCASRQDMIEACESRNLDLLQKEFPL
Kind of data set: pull-down; His6-protein (12.5 µM) incubated with the combined dansyl-YQSXX library (500 nM each peptide) in 50 mM Na2HPO4, 300 mM NaCl, 10 mM 2-mercaptoethanol, 15% glycerol, pH 8.0, 4 °C, 1 h; captured on Co-NTA resin, washed, bound peptides eluted with 6 M urea and identified by ESI-LC-MS; semi-quantitative. The following applies: both partners purified.

The target in the next data set is T2, AtPEX5C N601A (Arabidopsis thaliana, UniProt Q9FMA3 340-728, N601A).
T2 construct: Made by site-directed mutagenesis of His6-AtPEX5 (340-728) in pET-28b; also called N601A variant; source: E. coli BL21-Gold (DE3), purified (Co-NTA)
T2 sequence (looked up): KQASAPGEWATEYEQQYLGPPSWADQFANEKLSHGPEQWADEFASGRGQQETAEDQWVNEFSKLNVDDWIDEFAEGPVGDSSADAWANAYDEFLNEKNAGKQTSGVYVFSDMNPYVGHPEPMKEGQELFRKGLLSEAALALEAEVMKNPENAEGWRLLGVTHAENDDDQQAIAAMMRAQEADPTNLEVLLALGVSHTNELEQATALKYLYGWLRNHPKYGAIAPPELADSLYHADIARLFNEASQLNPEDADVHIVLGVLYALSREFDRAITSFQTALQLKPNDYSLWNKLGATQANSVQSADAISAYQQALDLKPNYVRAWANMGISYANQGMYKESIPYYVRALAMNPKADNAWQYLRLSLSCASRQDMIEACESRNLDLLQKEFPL
The data set is described as above. The following applies: both partners purified.

Regarding lissamine-labelled YQSFY, in data set [1], the solubility result is “poor solubility”. Consider YQSKL [model PTS1 peptide], for which the “affinity for AtPEX5 TPR domain” value on AtPEX5 TPR domain is listed as “nM affinity”. In the case of “WWRDPYSPMYQSYY [PTS1*, YQSYY including enhancing upstream residues]”, in data set [2], the “affinity for naturally occurring PEX5 receptor” value was “low affinity”.

B1: dansyl-YQSFY (peptide)
peptide: Dansyl-YQSFY-OH
SMILES: CN(C)c1cccc2c(S(=O)(=O)N[C@@H](Cc3ccc(O)cc3)C(=O)N[C@@H](CCC(N)=O)C(=O)N[C@@H](CO)C(=O)N[C@@H](Cc3ccccc3)C(=O)N[C@@H](Cc3ccc(O)cc3)C(=O)O)cccc12
notes: member of the YQSXX pentapeptide library; Tested within the combined library of 324 peptides, not alone; source: synthetic peptide, member of the split-and-pool dansyl-YQSXX library
With B1, the binding result with AtPEX5C D505H and with AtPEX5C N601A was “binds” in each case.
